Test results from patent US20170248616A1, “IN VITRO COMPOSITIONS COMPRISING HUMAN SAMPLE AND AMYLOID TARGETING AGENT” (Amydis Diagnostics, Inc., priority 2014, published 2017).

Biological target: T1, amyloid deposits in hippocampal brain sections (Homo sapiens, UniProt P05067)
T1 construct: from tissue; host or cells: hippocampal brain sections of a mouse model for Alzheimer's disease
Experiment: Fluorescence labeling of amyloid deposits in hippocampal brain sections from a mouse model for Alzheimer's disease
Settings: excitation wavelength 488 nm; fluorescence micrographs
From the text: An excitation wavelength of 488 nm was used to excite the fluorophores. FIG. 13. […] An excitation wavelength of 488 nm was used to excite the fluorophores.

T1 sequence (P05067 672-713 limits assumed): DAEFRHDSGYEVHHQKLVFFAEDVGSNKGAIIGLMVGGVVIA

| SMILES | fluorescence labeling of amyloid deposits |
| --- | --- |
| COCCOCCOCCNC(=O)/C(C#N)=C/c1ccc2cc(N3CCCCC3)ccc2c1 [Compound 1, 2-cyano-N-(2-(2-(2-methoxyethoxy)ethoxy)ethyl)-3-(6-(piperidin-1-yl)naphthalen-2-yl)acrylamide] | fluorescence labeling of amyloid deposits |
| COCCOCCOCCNS(=O)(=O)/C(C#N)=C/c1ccc2cc(N3CCCCC3)ccc2c1 [Compound 2, 1-cyano-N-(2-(2-(2-methoxyethoxy)ethoxy)ethyl)-2-(6-(piperidin-1-yl)naphthalen-2-yl)ethenesulfonamide] | fluorescence labeling of amyloid deposits |
